Patent publication US20190336496A1, “SELECTIVE BCL-2 INHIBITORS IN COMBINATION WITH AN ANTI-PD-1 OR AN ANTI-PD-L1 ANTIBODY FOR THE TREATMENT OF CANCERS” (AbbVie Inc., priority 2018, published 2019)
Where “and” joins values, the source holds several entries; their conditions need not be identical. Equal values may be shown once.

Legend:
[1] = tested on: CT26 tumors; experiment: CT26 mouse colon carcinoma syngeneic model; assay type: in vivo; settings: CT26 in BALB/c mice; venetoclax 50 mg/kg/day orally 14 days; antibody 10 mg/kg IP every 4 days, 3 times; day 18
Description: BALB/c, C57BL/6, CB6F1 (C57BL/6 bred with BALB/c) and SCID mice were obtained from Charles River (Wilmington, Mass.).
EMT6, mouse mammary carcinoma and CT26, mouse colon carcinoma, cell lines were obtained from ATCC (Manassas, Va.).
Compound (I),venetoclax, was formulated in 10% ethanol+30% PEG 400+60% Phosal® 50PG. Venetoclax was administered orally once a day for 14 days at 50 mg/kg/day.
1×10^5 CT26, EMT6 or MC38 cells were subcutaneously injected with Matrigel into the flanks of BALB/c, CB6F1 or C57BL/6 mice, respectively. Seven days later, mice were randomized to treatment groups of vehicle, venetoclax, anti-PD-1/PD-L1 or the combination of venetoclax and anti-PD-1/PD-L1. Tumor volume was determined via measurements of the length (L) and width (W) of the tumor with electronic calipers and the volume was calculated according to the following equation: V=L×W2/2 using Study Director Version 2.1.11 (Studylog Systems Inc., South San Francisco). Complete response (CR) was defined as reduction in tumor volume to ≤25 mm^3 over at least 3 successive measurements.

[2] = tested on: COLO-668; experiment: Venetoclax cell killing (CellTiter-Glo); assay type: cell-based; settings: Homo sapiens, COLO-668, 120 h; Colorectal; 10% FBS; 5 days
Description: (§1) Solid tumor cell lines were obtained from American Type Culture Collection (ATCC, Manassas, Va.) or the National Cancer Institute (NCI) and cultured in humidified incubators at 37° C. (5% CO2) in appropriate media (specified by supplier) supplemented with 10% fetal bovine serum (FBS) or 10% human serum (HS). 24 hours after plating into 96-well or 384-well tissue culture plates, venetoclax was added to cells at various concentrations (typically 0.010 to 10 μM in half-log increments) to perform concentration-response assessments of cell killing. After 1 to 5 days of culture in the presence of venetoclax, cell viability was assessed using CellTiter-Glo® reagent (Promega). IC50 values were determined by non-linear regression analysis of the concentration response data (Table 5 and Table 6).

[3] = tested on: HT29; experiment: Venetoclax cell killing (CellTiter-Glo); assay type: cell-based; settings: Homo sapiens, HT-29, 120 h; Colorectal; 10% FBS; 5 days
Description: as §1

[4] = tested on: DU4475; experiment: Venetoclax cell killing (CellTiter-Glo); assay type: cell-based; settings: Homo sapiens, DU-4475, 120 h; Breast Cancer; 10% FBS; 5 days
Description: as §1

[5] = tested on: NCI-H661; experiment: Venetoclax cell killing (CellTiter-Glo); assay type: cell-based; settings: Homo sapiens, NCI-H661, 72 h; Lung; 10% FBS; 3 days
Description: as §1

[6] = tested on: SKBR3; experiment: Venetoclax cell killing (CellTiter-Glo); assay type: cell-based; settings: Homo sapiens, SK-BR-3, 72 h; Breast Cancer; 10% FBS; 3 days
Description: as §1

[7] = tested on: NCI-H1048; experiment: Venetoclax cell killing (CellTiter-Glo); assay type: cell-based; settings: Homo sapiens, NCI-H1048, 72 h; Lung; 10% FBS; 3 days
Description: as §1

[8] = tested on: LoVo; experiment: Venetoclax cell killing (CellTiter-Glo); assay type: cell-based; settings: Homo sapiens, 120 h, Colorectal, 10% FBS, 5 days
Description: as §1

[9] = tested on: Hs 695T; experiment: Venetoclax cell killing (CellTiter-Glo); assay type: cell-based; settings: Homo sapiens, 120 h, Melanoma, 10% FBS, 5 days
Description: as §1

[10] = tested on: SW480; experiment: Venetoclax cell killing (CellTiter-Glo); assay type: cell-based; settings: Homo sapiens, SW480, 120 h; Colorectal; 10% FBS; 5 days
Description: as §1

[11] = tested on: NCI-H211; experiment: Venetoclax cell killing (CellTiter-Glo); assay type: cell-based, human
Description: as §1

[12] = tested on: T-cell subsets in peripheral blood; experiment: T-cell subsets in peripheral blood of healthy volunteers; assay type: in vivo, human; set-up: key: ↑: increase; ↓: decrease; ≈: no change; settings: one dose of 100 mg (or dose-equivalent); one day pre- vs seven days post-treatment; per subject
Description: In a clinical study sponsored by AbbVie Inc. healthy volunteers were administered with one dose of 100 mg of Compound (I) (venetoclax) or a dose-equivalent of Compound (IV) in a solid formulation to deliver 100 mg of Compound (I). T-cell subsets in peripheral blood were measured one day pre- and seven days post-treatment by flow cytometry. In most of the tested subjects the fraction of CD4+ and CD8+ T effector memory and terminally differentiated effector memory cells increased, the proportion of CD8+ naïve T-cells has remained unchanged or decreased, and the proportion of CD4+ and CD8+ central memory T cells has decreased following treatment with either agent (Table 7 and FIG. 13).

[13] = tested on: human PBMCs; experiment: In vitro sensitivity of human PBMCs; assay type: cell-based
Description: Human PBMCs were thawed and cultured overnight in 30 U/mL of interleukin-2 (IL-2). Cells were harvested, washed once with complete media and counted. PBMCs were plated at a density of 5×10^5 cells per well in a 48-well plate with 30 U/mL IL-2. For stimulation of T-cells, cells were plated in anti-CD3-coated wells (2.5 μg/mL; ThermoFisher cat. #16-0037-85, clone OKT3) and soluble anti-CD28 was added (1 μg/mL; ThermoFisher cat. #16-0289-85, clone CD28.2). Cells were treated with increasing concentrations of venetoclax for 24 hours (dimethyl sulfoxide (DMSO) was used as control). Cells were harvested, stained and subjected to flow cytometry analysis with a BD LSRII instrument (BD Biosciences)
However, when PBMCs were stimulated with anti-CD3 and anti-CD28 for 72 hours before treating with venetoclax, the T-cells were not sensitive to venetoclax. (FIG. 7B). While the proportion of naïve T-cells (CD4^+CD62L^+CD45RO^− and […]) decreased with increasing venetoclax concentrations, the proportion of CD4^+ central memory (TCM; CD62L^+CD45RO^+) and CD8^+ terminally differentiated effector memory (TEMRA; CD8^+CD62L^−CD45RO^−) and effector memory cells (TEM; CD8^+CD62L^−CD45RO^+) increased relative to the number of surviving T-cells (FIGS. 8A and 8C). […] In separate experiments, human PBMCs were thawed, rested overnight and then treated with venetoclax for 24 hours. Similar results were observed when increasing the number of tested samples (n=9 donors), and refining the markers for the different T-cell subsets: naïve T-cells (TN; CD62L+CD45RA+), central memory (TCM; CD62L+CD45RA−), effector memory cells (TEM; CD62L−CD45RA−) and terminally differentiated effector memory (TEMRA; CD62L−CD45RA+) (FIGS. 8E, 8F, 8G). Venetoclax decreases the proportion of naïve T-cells, but not memory cells, and specifically induces an increase in effector memory T-cells. It can therefore be seen that, while naïve T- and B-cells were sensitive to venetoclax, memory T-cells were less sensitive to venetoclax. While TCM cells home to lymph nodes and efficiently stimulate dendritic cells, TEM and TEMRA cells home to tissues, comprised of antigen-experienced cells and are ready to mediate rapid effector and cytotoxic functions necessary to kill the tumor.

[14] = unstimulated, increasing concentrations

CC1(C)CCC(CN2CCN(c3ccc(C(=O)NS(=O)(=O)c4ccc(NCC5CCOCC5)c([N+](=O)[O-])c4)c(Oc4cnc5[nH]ccc5c4)c3)CC2)=C(c2ccc(Cl)cc2)C1 [Compound (I), venetoclax]
tumor growth inhibition (TGI) [1]: 16% | IC50 [2]: > 10 µM | IC50 [3]: > 10 µM | IC50 [4]: > 10 µM | IC50 [5]: > 10 µM | IC50 [6]: 4.42 µM | IC50 [7]: > 10 µM | IC50 [8]: > 10 µM | IC50 [9]: > 10 µM | IC50 [10]: > 10 µM | IC50 ([11]; Homo sapiens, NCI-H211, 48 h, Lung, 10% HS, 2 days): 30 nM | sensitivity at clinically relevant concentrations ([11]; only line of Tables 5 and 6): showed sensitivity | CD4+ T-Cells TCM [12]: ↓ | CD4+ T-Cells TEM [12]: ↑ | CD4+ T-Cells TEMRA [12]: ↑ and ≈ (2×) | CD4+ T-Cells TN [12]: ≈ and ↑ and ↓ | CD8+ T-Cells TCM [12]: ↓ | CD8+ T-Cells TEM [12]: ↑ | CD8+ T-Cells TEMRA [12]: ↑ (2×) and ≈ | CD8+ T-Cells TN [12]: ↓ and ≈ (2×) | proportion of the T-cell subsets ([13]; CD3/CD28 stimulated conditions): did not affect | sensitivity of T-cells ([13]; PBMCs stimulated with anti-CD3 and anti-CD28 for 72 hours before treatment): not sensitive | number of B-cells and T-cells (CD4+ and CD8+) ([13]; unstimulated PBMCs cultured 72 hours, then 24 hours treatment): dose-dependent decrease | proportion of CD4+ TCM, CD8+ TEMRA and CD8+ TEM cells relative to surviving T-cells [13, 14]: increased | proportion of naïve T-cells [13, 14]: decreased
